Data taken from PMC7146544, “Dual Plasmepsin-Targeting Antimalarial Agents Disrupt Multiple Stages of the Malaria Parasite Life Cycle” (Cell Host & Microbe, 2020).
Where “and” joins values, the source holds several entries; their conditions need not be identical. Equal entries are not always repeated. Where two headings read alike, the source gives them in different places.

What was measured:
P. berghei [1] = test: Peters' 4-day suppressive test for P. berghei infection in mice; type: in vivo, Plasmodium berghei; settings: intraperitoneal, 20 mpk q.d., 4 days, Swiss mice
Description: For results shown in Figure 1 A male Swiss mice were infected intraperitoneally (IP) with 1 × 10^6 P. berghei ANKA-parasitised red blood cells withdrawn from a previously infected donor mouse. Test compounds were prepared in a vehicle consisting of 10% DMSO/90% Solutol (5% Solutol® HS-15 in 0.9% saline). […] Peripheral blood samples were taken 24 h after administration of the last dose, and parasitemia was measured by microscopic analysis of Giemsa-stained blood smears. Parasitemia values were averages for 6 mice per group and are expressed as percent parasitemia. For results shown in Figure 4A ‘donor’ female Swiss mice were infected intraperitoneally (IP) with blood stage P. berghei parasites constitutively expressing GFP (P. berghei ANKA GFPcon 259cl2 ([Franke-Fayard et al., 2004]). Three days later, groups of 4 ‘acceptor’ Swiss mice were infected intravenously (IV) with 1 × 10^7 parasitised erythrocytes from the ‘donor’ mice. Two h post infection, experimental mice (4 per cohort) were left untreated (control mice) or treated orally on 4 consecutive days with test drugs formulated in 20% DMSO/60% PG/20% water (v/v/v) or chloroquine dissolved in water. […] Peripheral blood samples were taken 12 h after the last treatment, and parasitemia measured by flow cytometry (proportion of GFP-positive cells in 100,000 recorded events using FACSCalibur, BD) and microscopic analysis of Giemsa-stained blood smears. Parasitemia values were averages for 4 mice per group and are expressed as percent parasitemia.

[2] = tested on: WM5 and 4 resistant P. falciparum; test: microbe, parasite or virus in culture; type: cell-based, Plasmodium falciparum
Description: (§1) After 72 h incubation at 37°C each well was fixed at room temperature for 30 min with 50 μL of 0.25% glutaraldehyde (ProSciTech) diluted in PBS. Following centrifugation at 1200 rpm for 1 min, supernatants were discarded and parasites were stained with 50 μL of 5X SYBR Green (Invitrogen) diluted in PBS. 50,000 cells were counted by flow cytometry using a Cell Lab Quanta SC – MPL Flow Cytometer (Beckman Coulter) ([Bacon et al., 2007]). Growth was expressed as a percentage of the parasitemia obtained using a vehicle control. All samples were tested in triplicate. EC50 values were determined using GraphPad Prism.
The parent and resistant lines were then cloned by limiting dilution, the EC50 for each line was determined and genomic DNA was purified from clonal parasites (QIAGEN Blood and Tissue Kit).

[3] = biological target: T1, P. falciparum aspartic protease, PMV (Plasmodium falciparum, UniProt Q8I6Z5); test: Peptide cleavage (FRET) assay, PMV; type: biochemical; settings: calculated from IC50 with Cheng-Prusoff equation
T1 construct: made in house
T1 sequence (Q8I6Z5 whole entry): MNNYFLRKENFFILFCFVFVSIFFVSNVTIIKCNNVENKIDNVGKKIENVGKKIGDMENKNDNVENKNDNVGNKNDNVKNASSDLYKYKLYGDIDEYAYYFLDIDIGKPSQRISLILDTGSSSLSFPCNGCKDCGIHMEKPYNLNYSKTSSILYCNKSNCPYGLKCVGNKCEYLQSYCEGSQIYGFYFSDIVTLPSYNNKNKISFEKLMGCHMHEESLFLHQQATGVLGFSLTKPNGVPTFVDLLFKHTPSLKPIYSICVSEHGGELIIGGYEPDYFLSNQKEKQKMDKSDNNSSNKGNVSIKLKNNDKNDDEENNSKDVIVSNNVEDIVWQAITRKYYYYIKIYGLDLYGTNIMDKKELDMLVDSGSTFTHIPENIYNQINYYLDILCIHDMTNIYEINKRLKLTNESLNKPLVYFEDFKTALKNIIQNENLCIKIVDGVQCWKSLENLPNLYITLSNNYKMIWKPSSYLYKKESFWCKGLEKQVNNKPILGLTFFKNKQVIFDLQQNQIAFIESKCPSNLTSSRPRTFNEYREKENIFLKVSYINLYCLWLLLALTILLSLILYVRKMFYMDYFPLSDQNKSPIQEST

3D7 parasite cultures = test: Time of drug killing; type: cell-based, Plasmodium falciparum; settings: 80nM WM4, 40nM WM5, 5nM WM382, added to early rings
Description: 3D7 parasite cultures were synchronized using 5% sorbitol (Sigma) twice at 46 h intervals then again when the culture was a mix of late schizonts and early rings. […] The parasitemia of each culture was quantitated every 8 h for 48 h by collecting 50 μL samples for counting by flow cytometry (as previously described). The developmental stage of the parasites was confirmed at each time point by microscopic examination of Giemsa stained thin blood films. Media and compound were replaced at the 32 h time point.

[4] = biological target: T2, recombinant PMX protein (rPMX) (Plasmodium falciparum, UniProt Q8IAS0); test: biochemical
T2 sequence (Q8IAS0 222-573): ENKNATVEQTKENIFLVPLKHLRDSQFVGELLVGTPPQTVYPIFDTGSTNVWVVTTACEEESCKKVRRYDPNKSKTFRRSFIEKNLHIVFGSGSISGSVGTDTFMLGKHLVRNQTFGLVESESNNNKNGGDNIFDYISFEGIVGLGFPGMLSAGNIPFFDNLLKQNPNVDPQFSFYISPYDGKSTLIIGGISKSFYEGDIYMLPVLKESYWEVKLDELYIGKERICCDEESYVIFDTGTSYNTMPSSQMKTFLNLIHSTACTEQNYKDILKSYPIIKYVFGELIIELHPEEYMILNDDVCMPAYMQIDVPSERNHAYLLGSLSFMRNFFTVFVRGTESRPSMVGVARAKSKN
Description: (§2) All wells were backfilled to 200 nL DMSO such that it remains constant across the assay plates (1% final). IC50 values were calculated by Dotmatics 5.3 and Spotfire 7.11.1 software using a nonlinear regression four-parameter fit analysis. The equation used is sigmoidal dose response (variable slope), Y = bottom + (top − bottom)/(1+10((logEC50 − X) × Hill Slope)). Compound Ki values were calculated from the IC50s using the Cheng-Prusoff equation, Ki = IC50/(1 + [S]/Km).
(§3) All compound potency assays were conducted in 20 μl total volume. For each assay, 10 μl of recombinant enzymes in respective assay buffers (Table) were dispensed into compound containing assay plates using a Multidrop Combi dispenser and allowed to incubate for 15 min. The reactions were started with a further 10 μl addition of FRET peptide substrates and reactions incubated at 37 °C for various times (Table).Samples were excited at 340 nm and fluorescence emission measured at 492 nm using an Envision fluorescence plate reader (Perkin-Elmer).

HepG2 cells = test: EC50 for HepG2 cells; type: cell-based; settings: Homo sapiens
[5] = Pharmacokinetic attributes (no method given); settings: in vivo
[6] = biological target: T2, recombinant PMX protein (rPMX)
Description: as §2, §3

P. falciparum [7] = test: P. falciparum asexual blood-stage growth inhibition (LDH or SYBR Green flow cytometry); type: cell-based, Plasmodium falciparum
Description: For High Throughput Screening (HTS) of compounds we used the lactate dehydrogenase (LDH) assay to detect parasitemia ([Makler et al., 1993], [Oduola et al., 1997]) formatted in a 384 well assay using an Echo555 (Labcyte). The P. falciparum assay was conducted with minor modifications ([Gamo et al., 2010]). Briefly, an inoculum of parasitized red blood cells at 0.7% parasitemia and 2% hematocrit in RPMI-1640, 5% AlbuMAX, 2% d-sucrose, 0.3% glutamine and 150 μM hypoxanthine was used for the assay. Assay plates (Greiner #781098, 384 well, white, tissue culture treated) were prepared by dispensing 1 μl of compound from master plates at 20 μM (10% DMSO stock) into 9ul pre-dispensed growth media in each well. The parasite inoculum (30 μl) was dispensed into plates containing compounds using a Multidrop Combi dispenser (Thermo Scientific). Final assay volume was 40 μl and final compound concentration was 500 nM. The positive growth control was 0.25% DMSO and the negative growth control was 100 nM chloroquine. Plates were incubated at 37 °C for 72 h in an atmosphere of […]. Following 72 h growth, plates were sealed with parafilm and frozen at −80 °C overnight. Plates were thawed at room temperature for at least 4 h prior to LDH activity being measured. 45 μl of fresh LDH reaction mix (174 mM sodium l-lactate, 214 μM 3-acetyl pyridine adenine dinucleotide (APAD), 270 μM Nitro Blue tetrazolium chloride (NBT), 4.35 U ml-1 diaphorase, 0.7% Tween 20, 100 mM Tris-HCl pH 7.5) was dispensed into each well using a Multidrop Combi dispenser. Plates were shaken to ensure mixing and absorbance at 650 nm was measured in an EnVision (PerkinElmer) plate reader after 30 min of incubation at room temperature. Data were normalized to percent growth inhibition using positive and negative controls and analyzed using Dotmatics 5.3 and Spotfire 7.11.1 (Tibco) software.
All wells were backfilled with DMSO to 45 nL such that this remained constant (0.1% DMSO). The positive growth control was 0.1% DMSO and the negative growth control was 100 nM chloroquine. Parasite inoculum (40 μl) was dispensed into plates containing compounds as described above. All other culture and lactate dehydrogenase (LDH) reaction methods are as described previously ([Makler et al., 1993], [Oduola et al., 1997]).
as §1

[8] = tested on: protein processing by PMIX and PMX in P. falciparum; test: Processing inhibition assays (immunoblot of merozoites and supernatants); type: cell-based, Plasmodium falciparum; settings: E64 10 μM, WM4 40 nM, WM382 2.5 nM
Description: Processing inhibition assays were performed as previously described ([Boyle et al., 2010]). Synchronized late trophozoite/early schizont cultures to which protease inhibitors had already been added, were passed over LD magnetic columns (Miltenyi Biotech) to remove uninfected erythrocytes. The cysteine protease inhibitor E64 (Sigma) was used at 10 μM. […] A control dish without any protease inhibitor was also included. Parasites were eluted from columns with complete RPMI 1640 culture medium to which the appropriate inhibitor at the same concentration had been added. Eluted parasites were adjusted to 5x10^6 schizonts/mL and 150 ul added per well of a 96-well flat-bottomed culture dish. […] Parasites from each condition were spun at 10000 g/10 min so that merozoite and supernatant fractions could be separately collected. Proteins from both fractions were extracted with Reducing sample buffer and separated on 4%–12% or 3%–8% acrylamide gels (NuPAGE, Invitrogen).

P. falciparum 3D7 = test: Ring stage survival assay for artesunate; type: cell-based, Plasmodium falciparum; settings: 3D7, 700 nM artesunate 6 h, then 66 h drug-free
Description: The method for determining sensitivity to artesunate was as described ([Kite et al., 2016]). Parasites were synchronized twice with 5% sorbitol at 46 h intervals and again when they were a mixture of schizonts and early rings. Triplicate 1 mL cultures were set up in 24 well plates (Falcon) at 0.5% parasitemia and 2% hematocrit with either 700 nM artesunate (Sigma) or 0.1% DMSO vehicle control. Following 6 h incubation, the cells were washed and incubated in drug-free media for a further 66 h. A 50 μL sample of each culture was fixed with 0.25% glutaraldehyde and stained with 5X SYBR then parasitemia was determined by flow cytometry. Percentage survival is parasitemia relative to vehicle treated parasites.
The percentage survival of all parasite lines was high in our experiments (∼5% for 3D7) was high compared to that described previously ([Kite et al., 2016]) most likely because we used a FACS based method was used for detection and quantitation. However, we were clearly able to distinguish the resistant CAM3 R539T line from the sensitive CAM3 Rev and 3D7 parasite lines.

Dd2 parasites = type: cell-based, Plasmodium falciparum; settings: inocula 10^5 to 10^9 parasites, up to 90 days
Source text: Each experiment was monitored by weekly microscopic examination of thin blood films. Media and compound were replaced three times each week.

P. berghei [9] = test: Dose ranging test for P. berghei infection in mice; type: in vivo, Plasmodium berghei; settings: chloroquine 10 mpk oral q.d. 4 days
Description: Control mice were treated orally with chloroquine for 4 days under q.d. dosing regimen at 10 mpk/day. From day 2 to 30 post infection, parasitemia was measured daily by flow cytometry and microscopy, as described above. Survival of animals to day 30 post infection, with no detectable parasites in the peripheral blood, were considered to be cured (i.e., 100% efficacy).

P. falciparum [10] = test: P. falciparum humanized NOD-scid IL2R_null mouse model; settings: chloroquine 50 mpk oral q.d. 4 days from day 3
Description: Compounds were tested in the murine P. falciparum SCID model ([Angulo-Barturen et al., 2008]). […] The mice were intravenously infected with 2 × 10^7 P. falciparum Pf3D7-infected erythrocytes (day 0) ([Angulo-Barturen et al., 2008]). On day 3 after infection, mice were randomly allocated to treatments that were administered once a day for 4 consecutive days (n = 3 mice) by oral gavage at 10 mL/kg. Parasitemia was measured by microscopy. Chimerism was monitored by flow cytometry using anti-murine erythrocyte TER119 monoclonal antibody (PharMingen, San Diego, CA) and SYTO-16 and then analyzed by flow cytometry in serial 2 μL blood samples taken every 24 h until assay completion.

[11] = 3D7 parasite line, asexual blood stage, read-out: EC50, inhibition of P. falciparum growth

CC(C)CC(c1ccc(C(F)(F)F)c(C(=O)N2Cc3nccnc3C2)c1)N1C(=N)NC(CC2CC2)(c2ccccc2)CC1=O (racemic) [WM5]
in vivo activity against P. berghei infection (P. berghei [1]): partial efficacy
EC50 ([2]; Plasmodium falciparum, 3D7, read-out: EC50, 3D7, parental line 3D7): 13.5 ± 0.78 nM
EC50 ([2]; Plasmodium falciparum, 3D7, read-out: EC50, 3D7-WM4.1, WM4-resistant line 3D7-WM4.1): 202 ± 7.23 nM
EC50 ([2]; Plasmodium falciparum, 3D7, read-out: EC50, 3D7-WM4.2, WM4-resistant line 3D7-WM4.2, Figure S1): 144 ± 46.6 nM
EC50 ([2]; Plasmodium falciparum, 3D7, read-out: EC50, 3D7-WM5.1, WM5-resistant line 3D7-WM5.1): 172 ± 6.95 nM
EC50 ([2]; Plasmodium falciparum, 3D7, read-out: EC50, 3D7-WM5.2, WM5-resistant line 3D7-WM5.2, Figure S1): 118 ± 4.7 nM
EC50 ([2]; Plasmodium falciparum, 3D7, read-out: EC50, 3D7-WM5.3, WM5-resistant line 3D7-WM5.3, Figure S1): 51.8 ± 19.7 nM
fold resistance of 3D7-WM5.1 compared with 3D7 ([2]; printed as X in Figure 1E): 13 fold
EC50 ([2]; read-out: EC50, 3D7-WM4.1, WM4-resistant line 3D7-WM4.1): 107 ± 2.2 nM
EC50 ([2]; read-out: EC50, 3D7-WM5.1, WM5-resistant line 3D7-WM5.1): 172 nM and 117 nM
EC50 ([2]; read-out: EC50, 3D7, parental line 3D7): 11.1 ± 3.7 nM
Ki [3]: 3300 ± 540 nM
stage of arrest of blood-stage development (3D7 parasite cultures): arrested at late schizont stage
IC50 [4]: 3.02 nM
Ki [4]: 1.9 ± 0.6 nM
EC50 (HepG2 cells): 17900 ± 2000 nM
pharmacokinetic attributes [5]: did not have desirable pharmacokinetic attributes
Fold Selectivity PMX v PMV [6]: 1,755 fold
EC50 (P. falciparum [7]; Plasmodium falciparum, Figure 2C, mean ± SD, three experiments, read-out: EC50 P. falciparum): 9.3 ± 2.7 nM

CC(C)C[C@H](NC(=O)[C@H]1O[C@@H]1C(=O)O)C(=O)NCCCCN=C(N)N [E64, reference compound]
AMA1 processing in merozoites [8]: not affected
ASP processing [8]: ASP was processed
MTRAP processing [8]: did not inhibit its processing
PMIX processing in parasites [8]: not inhibited
RAP1 processing [8]: Two processed forms of RAP1 (p82 and p69) are detected
RON3 processing [8]: did not block processing
Rh1 processed fragments, release into the supernatant [8]: the processed fragments were released into the supernatant

CC(NC(=O)c1cccc(C(c2ccccc2)N2C(=N)NC(C)(C(C)C)CC2=O)c1)c1ccccc1 (stereo not shown) [R-WM4]
EC50 (P. falciparum [7]; [11]): 4.6 nM

CC(C)CC(c1ccc(C(F)(F)F)c(C(=O)N2Cc3nccnc3C2)c1)N1C(=N)NC(CC2CC2)(c2ccccc2)CC1=O (stereo not shown) [R-WM5]
EC50 (P. falciparum [7]; [11]): 10 nM

CC(NC(=O)c1cccc(C(c2ccccc2)N2C(=N)NC(C)(C(C)C)CC2=O)c1)c1ccccc1 (stereo not shown) [S-WM4]
EC50 (P. falciparum [7]; [11]): 440 ± 113 nM

CC(C)CC(c1ccc(C(F)(F)F)c(C(=O)N2Cc3nccnc3C2)c1)N1C(=N)NC(CC2CC2)(c2ccccc2)CC1=O (stereo not shown) [S-WM5]
EC50 (P. falciparum [7]; [11]): 688 ± 218 nM

C[C@H]1[C@H](OC(=O)CCC(=O)O)O[C@@H]2O[C@@]3(C)CC[C@H]4[C@H](C)CC[C@@H]1[C@@]24OO3 [artesunate]
percentage survival, ring stage survival assay (P. falciparum 3D7): ~5%

O=C1C(O)=C([C@H]2CC[C@H](c3ccc(Cl)cc3)CC2)C(=O)c2ccccc21 [atovaquone]
selection of resistant parasites, time to resistance (Dd2 parasites): Parasites resistant to atovaquone were selected

CCN(CC)CCCC(C)Nc1ccnc2cc(Cl)ccc12 (stereo not shown) [chloroquine, reference compound]
day post-infection on which parasites were detectable (P. berghei [9]): 10 days
day by which mice were cleared of parasitemia (P. falciparum [10]): ≤ 7 days
